Assay results published in US9163066B2, “Antimicrobial lytic peptides” (priority 2010, dated 2015).
Like-named read-outs stand apart in the source and are kept apart here. Residues, ends and D or L forms follow the SMILES beside them. No end group written: not given here.

What was measured:
[1] = system: red blood cells (erythrocytes); assay: Hemolytic activity of the peptides (hemoglobin release, absorbance at 412 nm); type: cell-based
Experimental: Hemolysis as defined herein is an in vitro assay where the compounds tendency to lyse red blood cells is determined. Presumably, the compounds that are less hemolytic will be less toxic in vivo. Increasing amounts of compound are added to solutions containing red blood cells and left for a specified time and then lysis is determined spectrophotometrically by measuring hemoglobin release.
A small volume of a suspension of erythrocytes (about 100 million) is kept on ice with a specific amount of lytic peptide. The cells are then placed in a 37° C. water bath for 10 min, vortexed and centrifuged at 1000 g for 2 min. The supernatant was removed and the amount of hemoglobin that was released was determined by the samples' absorbance at 412 nm. Control values without added peptide were subtracted from the absorbance readings.
The numerical difference between the value of the mean of hemolysis and the mean of the activity is a useful way to determine those peptides having the most desired activity.

[2] = system: bacteria; assay: Antibacterial activity of the peptides, broth microdilution MIC, mean activity (Table II); type: cell-based; settings: overnight incubation (18 to 24 h)
Experimental: Minimum Inhibitory Concentration or MIC for the purpose of this invention is the lowest concentration of an antimicrobial that will inhibit the visible growth of a microorganism after overnight incubation. Minimum inhibitory concentrations are important in diagnostic laboratories to confirm resistance of microorganisms to an antimicrobial agent and also to monitor the activity of new antimicrobial agents. A MIC is generally regarded as the most basic laboratory measurement of the activity of an antimicrobial agent against an organism. MBC is defined as the lowest concentration of an antimicrobial agent needed to kill 99.9% of the initial organism inoculum. Presently, specific guidelines for interpretation are not available; therefore, a clinician knowledgeable in both bactericidal testing and infectious diseases should be available to interpret the results.
MICs were determined by the broth microdilution method described by the National Committee for Clinical Laboratory Standards (17). Serial twofold dilutions of each peptide solution were prepared (final volume, […]) in microtiter trays with appropriate medium. Each dilution series included control wells containing bacteria without peptide. A total of […] of the adjusted inoculum (100,000 organisms) was added to each well, and then the trays were incubated at
in ambient air overnight (18 to 24 h). The MIC of each peptide for each isolate was read as the lowest concentration of peptide that inhibited visible growth of the organism.
The above in vitro tests and analyses were conducted on a set of designed peptides of the present invention; and, for comparative purposes, naturally derived molecules.

[3] = erythrocytes, 37° C. for 10 min

CC[C@H](C)[C@H](NC(=O)[C@H](CCCCN)NC(=O)[C@H](C)NC(=O)[C@H](CCCNC(=N)N)NC(=O)[C@H](CC(C)C)NC(=O)[C@H](CCCNC(=N)N)NC(=O)[C@@H](NC(=O)[C@H](CCCCN)NC(=O)[C@@H](NC(=O)[C@H](CCCCN)NC(=O)[C@H](C)NC(=O)[C@H](CCCNC(=N)N)NC(=O)[C@H](CC(C)C)NC(=O)[C@H](CCCCN)NC(=O)[C@@H](N)Cc1ccccc1)C(C)C)[C@@H](C)CC)C(=O)N[C@@H](CCCCN)C(=O)N[C@@H](CC(C)C)C(=O)O [AGM 155] (H-FKLRAKVKIRLRAKIKL-OH; N-terminus and C-terminus assumed) was tested, and the “Mean of Hemolysis” value [1] was 1.6 µM.

For CC[C@H](C)[C@H](NC(=O)[C@H](CCCCN)NC(=O)[C@@H](NC(=O)[C@H](CCCNC(=N)N)NC(=O)[C@H](CC(C)C)NC(=O)[C@H](CCCNC(=N)N)NC(=O)[C@H](C)NC(=O)[C@H](CCCCN)NC(=O)[C@@H](NC(=O)[C@H](CCCCN)NC(=O)[C@@H](N)Cc1ccccc1)[C@@H](C)CC)C(C)C)C(=O)N[C@@H](CCCCN)C(=O)N[C@@H](C)C(=O)N[C@@H](CCCNC(=N)N)C(=O)N[C@@H](CC(C)C)C(=O)N[C@@H](CCCCN)C(=O)N[C@@H](CC(C)C)C(=O)O [AGM 176] (H-FKIKARLRVKIKARLKL-OH; N-terminus and C-terminus assumed), the “Mean of Hemolysis” value [1] was 1.3 µM.

In the case of CC[C@H](C)[C@H](NC(=O)[C@H](CCCNC(=N)N)NC(=O)[C@H](CC(C)C)NC(=O)[C@H](CCCCN)NC(=O)[C@@H](NC(=O)[C@H](CCCCN)NC(=O)[C@H](C)NC(=O)[C@H](CCCNC(=N)N)NC(=O)[C@@H](NC(=O)[C@H](CCCNC(=N)N)NC(=O)[C@@H](N)Cc1ccccc1)[C@@H](C)CC)C(C)C)C(=O)N[C@@H](CCCNC(=N)N)C(=O)N[C@@H](C)C(=O)N[C@@H](CCCCN)C(=O)N[C@H](C(=O)N[C@@H](CCCNC(=N)N)C(=O)N[C@@H](CC(C)C)C(=O)O)C(C)C [AGM 178] (H-FRIRAKVKLRIRAKVRL-OH; N-terminus and C-terminus assumed), the “Mean of Hemolysis” value [1] is reported as 1.2 µM.

With CC[C@H](C)[C@H](NC(=O)[C@H](CCCNC(=N)N)NC(=O)[C@H](C)NC(=O)[C@H](CCCCN)NC(=O)[C@@H](NC(=O)[C@H](CCCCN)NC(=O)[C@H](CC(C)C)NC(=O)[C@H](CCCNC(=N)N)NC(=O)[C@@H](NC(=O)[C@H](CCCNC(=N)N)NC(=O)[C@H](C)NC(=O)[C@H](CCCCN)NC(=O)[C@@H](NC(=O)[C@H](CCCNC(=N)N)NC(=O)[C@@H](N)Cc1ccccc1)C(C)C)[C@@H](C)CC)C(C)C)C(=O)N[C@@H](CCCNC(=N)N)C(=O)N[C@@H](CC(C)C)C(=O)O [AGM 179] (H-FRVKARIRLKVKARIRL-OH; N-terminus and C-terminus assumed) the “Mean of Hemolysis” value [1] was 2.1 µM.

For CC[C@H](C)[C@H](NC(=O)[C@H](CCCNC(=N)N)NC(=O)[C@@H]1CCCN1C(=O)[C@H](Cc1cnc[nH]1)NC(=O)[C@@H]1CCCN1C(=O)[C@@H]1CCCN1C(=O)[C@H](CCCNC(=N)N)NC(=O)[C@@H]1CCCN1C(=O)[C@H](CCC(N)=O)NC(=O)[C@@H]1CCCN1C(=O)[C@@H](NC(=O)[C@H](Cc1ccc(O)cc1)NC(=O)[C@@H](NC(=O)[C@@H]1CCCN1C(=O)[C@H](CCCNC(=N)N)NC(=O)[C@H](CC(N)=O)NC(=O)[C@H](CC(N)=O)NC(=O)CN)C(C)C)[C@@H](C)CC)C(=O)O [Apidaecin IA] (H-GNNRPVYIPQPRPPHPRI-OH), the “Mean of Hemolysis” value [1] was 1.6 µM and the “Mean Activity” value [2] was 20.67 µM.

In the case of CC[C@H](C)[C@H](NC(=O)CNC(=O)[C@H](CC(N)=O)NC(=O)[C@H](CCCNC(=N)N)NC(=O)[C@@H](NC(=O)[C@H](CC(N)=O)NC(=O)[C@H](CCCNC(=N)N)NC(=O)CNC(=O)[C@H](CCSC)NC(=O)[C@H](CCCCN)NC(=O)[C@H](CCC(=O)O)NC(=O)[C@@H](NC(=O)[C@H](CCCCN)NC(=O)[C@H](CCCCN)NC(=O)[C@H](Cc1ccccc1)NC(=O)[C@@H](NC(=O)[C@H](CCCCN)NC(=O)[C@H](Cc1c[nH]c2ccccc12)NC(=O)[C@@H](N)CCCCN)C(C)C)[C@@H](C)CC)[C@@H](C)CC)C(=O)N[C@H](C(=O)N[C@@H](CCCCN)C(=O)N[C@@H](C)C(=O)NCC(=O)N1CCC[C@H]1C(=O)N[C@@H](C)C(=O)N[C@H](C(=O)N[C@@H](C)C(=O)N[C@H](C(=O)N[C@@H](CC(C)C)C(=O)NCC(=O)N[C@@H](CCC(=O)O)C(=O)N[C@@H](C)C(=O)N[C@@H](CCCCN)C(=O)N[C@@H](C)C(=O)N[C@@H](CC(C)C)C(N)=O)C(C)C)[C@@H](C)CC)C(C)C [Cecropin B] (H-KWKVFKKIEKMGRNIRNGIVKAGPAIAVLGEAKAL-NH2), the “Mean of Hemolysis” value [1] is reported as 1.2 µM.

For CC[C@H](C)[C@H](NC(=O)[C@@H]1CCCN1C(=O)[C@H](CCCNC(=N)N)NC(=O)[C@@H]1CCCN1C(=O)[C@H](Cc1cnc[nH]1)NC(=O)[C@H](CO)NC(=O)[C@@H](NC(=O)[C@@H]1CCCN1C(=O)[C@H](CCCNC(=N)N)NC(=O)[C@@H]1CCCN1C(=O)[C@H](CO)NC(=O)[C@H](Cc1ccc(O)cc1)NC(=O)[C@@H]1CCCN1C(=O)[C@H](CCCNC(=N)N)NC(=O)[C@@H]1CCCN1C(=O)[C@H](CCCCN)NC(=O)CN)[C@@H](C)O)C(=O)N[C@@H](CCCNC(=N)N)C(=O)N[C@H](C(=O)O)C(C)C [Drosocin] (H-GKPRPYSPRPTSHPRPIRV-OH), the “Mean of Hemolysis” value [1] was 1.6 µM and the “Mean Activity” value [2] was 21 µM.

With CC[C@H](C)[C@H](NC(=O)CN)C(=O)NCC(=O)N[C@@H](C)C(=O)N[C@H](C(=O)N[C@@H](CC(C)C)C(=O)N[C@@H](CCCCN)C(=O)N[C@H](C(=O)N[C@@H](CC(C)C)C(=O)N[C@H](C(=O)N[C@H](C(=O)NCC(=O)N[C@@H](CC(C)C)C(=O)N1CCC[C@H]1C(=O)N[C@@H](C)C(=O)N[C@@H](CC(C)C)C(=O)N[C@H](C(=O)N[C@@H](CO)C(=O)N[C@@H](Cc1c[nH]c2ccccc12)C(=O)N[C@H](C(=O)N[C@@H](CCCCN)C(=O)N[C@@H](CCCNC(=N)N)C(=O)N[C@@H](CCCCN)C(=O)N[C@@H](CCCNC(=N)N)C(=O)N[C@@H](CCC(N)=O)C(=O)N[C@@H](CCC(N)=O)C(N)=O)[C@@H](C)CC)[C@@H](C)CC)[C@@H](C)O)[C@@H](C)O)C(C)C)C(C)C [Melittin] the “Mean of Hemolysis” value [1, 3] was 100.8 µM and the “Mean Activity” value [2] was 1.33 µM.

With Cecropin A the “Mean Activity” value [2] was 3.83 µM.

For Histatin-5, the “Mean of Hemolysis” value [1] was 1.8 µM and the “Mean Activity” value [2] was 30 µM.

For Indolicidin, the “Mean of Hemolysis” value [1] was 2 µM and the “Mean Activity” value [2] was 5.33 µM.

For LL-37, the “Mean of Hemolysis” value [1] was 5.1 µM and the “Mean Activity” value [2] was 1 µM.

In the case of “Magainin I: Magainins: 23 amino acids in length, derived from the African Clawed Frog (GIGKFLHSAGKFGKAFVGEIMKS; Magainin-1; UniProt P11006 37-59, looked up)”, the “Mean of Hemolysis” value [1] is reported as 1.3 µM and the “Mean Activity” value [2] is reported as 30 µM.

Magainin II was tested, and the “Mean of Hemolysis” value [1] was 1.5 µM and the “Mean Activity” value [2] was 30 µM.

“Pyrrhocoricin (D): naturally derived molecule tested for comparative purposes (VDKGSYLPRPTPPRPIYNRN; not fully specified; UniProt P37362 1-20, looked up)” was tested, and the “Mean of Hemolysis” value [1, 3] was 1.9 µM and the “Mean Activity” value [2] was 23.33 µM.

In the case of “Pyrrhocoricin (H): naturally derived molecule tested for comparative purposes (VDKGSYLPRPTPPRPIYNRN; UniProt P37362 1-20, looked up)”, the “Mean of Hemolysis” value [1, 3] is reported as 1.6 µM and the “Mean Activity” value [2] is reported as 26.67 µM.
